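Five compound concentrations were applied to cells in 96-well plates for 48 hours; endpoints were derived by simple linear interpolation of the resulting dose-response curve. GI50: concentration for 50% inhibition of growth.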 Active and inactive are the calls of the source. Rule as the data show it: active = GI50 up to about 1.1 µM and inactive = higher.
Tests used:
Test in all cases: growth of human tumour cells (NCI), 48 h
[1] = system: 786-0
[2] = system: A498
[3] = system: A549
[4] = system: ACHN
[5] = system: BT-549
[6] = system: CAKI-1
[7] = system: CCRF-CEM
[8] = system: COLO 205
[9] = system: DU-145
[10] = system: EKVX
[11] = system: HCC 2998
[12] = system: HCT-116
[13] = system: HCT-15
[14] = system: HL-60
[15] = system: HOP-62
[16] = system: HOP-92
[17] = system: HT-29
[18] = system: Hs-578T
[19] = system: IGROV-1
[20] = system: K562
[21] = system: KM12
[22] = system: M14
[23] = system: MCF7
[24] = system: MDA-MB-231
[25] = system: MDA-MB-435
[26] = system: MDA-N
[27] = system: MOLT-4
[28] = system: NCI-H226
[29] = system: NCI-H23
[30] = system: NCI-H460
[31] = system: NCI-H522
[32] = system: NCI/ADR-RES
[33] = system: OVCAR-3
[34] = system: OVCAR-4
[35] = system: OVCAR-5
[36] = system: OVCAR-8
[37] = system: PC-3
[38] = system: RPMI-8226
[39] = system: RXF 393
[40] = system: SF-268
[41] = system: SF-295
[42] = system: SF-539
[43] = system: SK-MEL-28
[44] = system: SK-MEL-2
[45] = system: SK-MEL-5
[46] = system: SK-OV-3
[47] = system: SN12C
[48] = system: SNB-19
[49] = system: SNB-75
[50] = system: SR
[51] = system: SW-620
[52] = system: T47D
[53] = system: TK-10
[54] = system: U-251
[55] = system: UACC-257
[56] = system: UACC-62
[57] = system: UO-31

COC(=O)CCSC1=CC(=O)c2nc3ccccc3c3ccnc1c23 was tested, and the GI50 [1] was 19.9 µM (inactive), the GI50 [2] was > 84.7 µM (inactive) and the GI50 [3] was > 93.1 µM (inactive). The GI50 [4] was 19.4 µM (inactive), the GI50 [5] was 17.7 µM (inactive) and the GI50 [6] was 18.8 µM (inactive). The GI50 [7] was 4.49 µM (inactive), the GI50 [8] was 13.6 µM (inactive) and the GI50 [9] was 22.2 µM (inactive). For the same compound, the GI50 [10] was 18.9 µM (inactive), the GI50 [11] was 14.3 µM (inactive) and the GI50 [12] was 20.1 µM (inactive). The GI50 [13] was 13.6 µM, the GI50 [14] was 3.61 µM (inactive) and the GI50 [15] was 33 µM (inactive). For the same compound, the GI50 [16] was 25.7 µM (inactive), the GI50 [17] was 18 µM (inactive) and the GI50 [18] was 23.4 µM (inactive). For the same compound, the GI50 [19] was 16.7 µM (inactive), the GI50 [20] was 8.47 µM (inactive) and the GI50 [21] was 16.2 µM (inactive). For the same compound, the GI50 [22] was 21.9 µM (inactive), the GI50 [23] was 20.2 µM (inactive) and the GI50 [24] was 27.5 µM (inactive). The GI50 [25] was 7.4 µM (inactive), the GI50 [26] was 28 µM (inactive) and the GI50 [27] was 9.95 µM (inactive). The GI50 [28] was 47.1 µM (inactive), the GI50 [29] was 15.6 µM (inactive) and the GI50 [30] was 16.1 µM (inactive). The GI50 [31] was 1.39 µM (inactive), the GI50 [32] was 15.3 µM (inactive) and the GI50 [33] was 2.68 µM (inactive). The GI50 [34] was 19.8 µM (inactive), the GI50 [35] was 42.7 µM (inactive) and the GI50 [36] was 17.1 µM (inactive). For the same compound, the GI50 [37] was 15.4 µM (inactive), the GI50 [38] was 23.6 µM (inactive) and the GI50 [39] was 20.3 µM (inactive). The GI50 [40] was 15.1 µM (inactive), the GI50 [41] was 58.7 µM (inactive) and the GI50 [42] was 15.7 µM (inactive). For the same compound, the GI50 [43] was 21.9 µM (inactive), the GI50 [44] was 23.2 µM (inactive) and the GI50 [45] was 18.8 µM (inactive). The GI50 [46] was 54.3 µM (inactive), the GI50 [47] was 19.7 µM (inactive) and the GI50 [48] was > 100 µM (inactive). The GI50 [49] was > 100 µM (inactive), the GI50 [50] was 5.32 µM (inactive) and the GI50 [51] was 22.2 µM (inactive). The GI50 [52] was 18.7 µM (inactive), the GI50 [53] was 14.2 µM (inactive) and the GI50 [54] was 32.4 µM (inactive). The GI50 [55] was 17.2 µM (inactive), the GI50 [56] was 8.09 µM (inactive) and the GI50 [57] was 15.3 µM (inactive).
